Where “and” joins values, the source holds several entries; their conditions need not be identical. Equal entries are not always repeated. Inconclusive results are not listed.
System: BDF1 mice, colon carcinoma 38 sc, T/C %
Assay: NCI In Vivo Anticancer Drug Screen. Data for tumor model Colon Carcinoma 38 (subcutaneous) in B6D2F1 (BDF1) mice
Settings: endpoint: median tumor weight (est.), higher = larger tumour
Summary of the method: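 Transplantable tumor in mice; compound-treated vs vehicle-dosed controls. Measured survival or tumor size; value = T ÷ C.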

[1] = dose: 100.0 mg/kg/injection, schedule: Q07DX002 (ip), vehicle: Klucel (hydroxypropylcellulose) (HPC)
[2] = dose: 200.0 mg/kg/injection, schedule: Q07DX002 (ip), vehicle: Klucel (hydroxypropylcellulose) (HPC)
[3] = dose: 400.0 mg/kg/injection, schedule: Q07DX002 (ip), vehicle: Klucel (hydroxypropylcellulose) (HPC)
[4] = dose: 12.5 mg/kg/injection, schedule: Q07DX002 (ip), vehicle: water
[5] = dose: 100.0 mg/kg/injection, schedule: Q07DX002 (ip), vehicle: saline with Tween-80
[6] = dose: 200.0 mg/kg/injection, schedule: Q07DX002 (ip), vehicle: saline with Tween-80
[7] = dose: 400.0 mg/kg/injection, schedule: Q07DX002 (ip), vehicle: saline with Tween-80
[8] = dose: 800.0 mg/kg/injection, schedule: Q07DX002 (ip), vehicle: saline with Tween-80
[9] = dose: 25.0 mg/kg/injection, schedule: Q07DX002 (ip), vehicle: saline
[10] = dose: 50.0 mg/kg/injection, schedule: Q07DX002 (ip), vehicle: saline
[11] = dose: 200.0 mg/kg/injection, schedule: Q07DX002 (ip), vehicle: saline
[12] = dose: 12.5 mg/kg/injection, schedule: Q07DX002 (ip), vehicle: saline
[13] = dose: 400.0 mg/kg/injection, schedule: Q07DX002 (ip), vehicle: saline
[14] = dose: 50.0 mg/kg/injection, schedule: Q07DX002 (ip), vehicle: Klucel (hydroxypropylcellulose) (HPC)
[15] = dose: 25.0 mg/kg/injection, schedule: Q07DX002 (ip), vehicle: saline with Tween-80

CCN(CC)CCOC(=O)/C=C\c1cccc2c(=O)cc(-c3ccccc3)oc12
T/C [1]: 102 % of control | T/C [2]: 65 % of control | T/C [3]: 52 % of control

COC1/C=C\C=C(/C)C(=O)NC2=CC(=O)C=C(C2=O)C(OC)C(C)CC(OC)C(OC)C(C)/C=C(/C)C1OC(N)=O (centres undefined)
T/C (dose: 1.5 mg/kg/injection, schedule: Q07DX002 (ip), vehicle: Klucel (hydroxypropylcellulose) (HPC)): 159 % of control | T/C (dose: 6.0 mg/kg/injection, schedule: Q07DX002 (ip), vehicle: Klucel (hydroxypropylcellulose) (HPC)): 117 % of control | T/C (dose: 12.0 mg/kg/injection, schedule: Q07DX002 (ip), vehicle: Klucel (hydroxypropylcellulose) (HPC)): 115 % of control

CC(=O)NC(C=O)OCC=O (centres undefined)
T/C [4]: 92 % of control | T/C (dose: 400.0 mg/kg/injection, schedule: Q07DX002 (ip), vehicle: water): 152 % of control

CC(=O)NC(Cc1ccc(F)cc1)C(=O)O (centres undefined)
T/C [5]: 84 % of control | T/C [6]: 83 % of control | T/C [7]: 77 % of control | T/C [8]: 77 % of control

CCCC(=O)O
T/C [9]: 121 % of control | T/C [10]: 105 % of control | T/C [11]: 99 % of control

COc1ccc(OC)c(Cc2cnc3nc(N)nc(N)c3c2C)c1
T/C [4]: 62 % of control | T/C (dose: 25.0 mg/kg/injection, schedule: Q07DX002 (ip), vehicle: water): 96 % of control | T/C (dose: 50.0 mg/kg/injection, schedule: Q07DX002 (ip), vehicle: water): 67 % of control and 82 % of control | T/C (dose: 100.0 mg/kg/injection, schedule: Q07DX002 (ip), vehicle: water): 93 % of control and 100 % of control | T/C (dose: 200.0 mg/kg/injection, schedule: Q07DX002 (ip), vehicle: water): 32 % of control

C#CCN(Cc1ccc2nc(N)[nH]c(=O)c2c1)c1ccc(C(=O)NC(CCC(=O)O)C(=O)O)cc1 (centres undefined)
T/C (dose: 50.0 mg/kg/injection, schedule: Q07DX002 (ip), vehicle: sodium bicarbonate): 60 % of control | T/C (dose: 100.0 mg/kg/injection, schedule: Q07DX002 (ip), vehicle: sodium bicarbonate): 70 % of control | T/C (dose: 200.0 mg/kg/injection, schedule: Q07DX002 (ip), vehicle: sodium bicarbonate): 49 % of control | T/C (dose: 400.0 mg/kg/injection, schedule: Q07DX002 (ip), vehicle: sodium bicarbonate): 51 % of control

Nc1nncs1
T/C [12]: 71 % of control | T/C [9]: 114 % of control | T/C [10]: 78 % of control | T/C (dose: 50.0 mg/kg/injection, schedule: Q07DX003 (ip), vehicle: saline): 74 % of control | T/C (dose: 100.0 mg/kg/injection, schedule: Q07DX002 (ip), vehicle: saline): 68 % of control | T/C (dose: 100.0 mg/kg/injection, schedule: Q07DX003 (ip), vehicle: saline): 78 % of control and 79 % of control | T/C [11]: 53 % of control | T/C (dose: 200.0 mg/kg/injection, schedule: Q07DX003 (ip), vehicle: saline): 58 % of control and 74 % of control | T/C [13]: 65 % of control | T/C (dose: 400.0 mg/kg/injection, schedule: Q07DX003 (ip), vehicle: saline): 35 % of control and 38 % of control | T/C (dose: 800.0 mg/kg/injection, schedule: Q07DX003 (ip), vehicle: saline): 51 % of control and 53 % of control

CC1=CC(=NN=c2cc(C)n([O-])c(C)c2)C=C(C)[N+]1=O
T/C [12]: 82 % of control | T/C [9]: 108 % of control | T/C (dose: 25.0 mg/kg/injection, schedule: Q07DX002 (ip), vehicle: suspension in saline): 123 % of control | T/C [10]: 73 % of control | T/C (dose: 100.0 mg/kg/injection, schedule: Q07DX002 (ip), vehicle: suspension in saline): 97 % of control | T/C [11]: 99 % of control | T/C (dose: 200.0 mg/kg/injection, schedule: Q07DX002 (ip), vehicle: suspension in saline): 121 % of control | T/C [13]: 90 % of control | T/C (dose: 400.0 mg/kg/injection, schedule: Q07DX002 (ip), vehicle: suspension in saline): 98 % of control

O=NN(CCF)C(=O)NC1CCCCC1
T/C (dose: 12.5 mg/kg/injection, schedule: Q07DX002 (ip), vehicle: Klucel (hydroxypropylcellulose) (HPC)): 77 % of control | T/C [14]: 15 % of control

CC[C@](C)(O)C(=O)O[C@H]1C(=O)O[C@@H]2C[C@H]3C(C)=CC(=O)[C@@H](O)[C@]3(C)[C@H]3[C@@]4(O)OC[C@]32[C@@H]1[C@@H](C)[C@H]4O
T/C (dose: 0.13 mg/kg/injection, schedule: Q07DX002 (ip), vehicle: saline with Tween-80): 91 % of control | T/C (dose: 0.25 mg/kg/injection, schedule: Q07DX002 (ip), vehicle: saline with Tween-80): 90 % of control | T/C (dose: 0.5 mg/kg/injection, schedule: Q07DX002 (ip), vehicle: saline with Tween-80): 60 % of control | T/C (dose: 1.0 mg/kg/injection, schedule: Q07DX002 (ip), vehicle: saline with Tween-80): 62 % of control | T/C (dose: 2.0 mg/kg/injection, schedule: Q07DX002 (ip), vehicle: saline with Tween-80): 47 % of control

C/C=C/C=C1/OC(C)=C(C(C)=O)C1=O
T/C [15]: 59 % of control and 84 % of control | T/C [6]: 54 % of control and 57 % of control and 69 % of control | T/C [7]: 37 % of control and 62 % of control | T/C [8]: 100 % of control

CCCCC(C)(C(=O)OCC)C(=O)OCC
T/C (dose: 25.0 mg/kg/injection, schedule: Q07DX003 (ip), vehicle: Klucel (hydroxypropylcellulose) (HPC)): 68 % of control and 69 % of control | T/C (dose: 200.0 mg/kg/injection, schedule: Q07DX003 (ip), vehicle: Klucel (hydroxypropylcellulose) (HPC)): 63 % of control and 85 % of control | T/C (dose: 400.0 mg/kg/injection, schedule: Q07DX003 (ip), vehicle: Klucel (hydroxypropylcellulose) (HPC)): 91 % of control and 102 % of control

COC1CC(CC2CCC(C)C(C(C)C(=O)O)O2)OC2(OC(C)(C3CCC(C)(C4OC(C5OC(O)(CO)C(C)CC5C)CC4C)O3)CC2C)C1C (centres undefined)
T/C (dose: 0.3 mg/kg/injection, schedule: Q07DX002 (ip), vehicle: Klucel (hydroxypropylcellulose) (HPC)): 61 % of control | T/C (dose: 0.31 mg/kg/injection, schedule: Q07DX002 (ip), vehicle: Klucel (hydroxypropylcellulose) (HPC)): 42 % of control | T/C (dose: 1.25 mg/kg/injection, schedule: Q07DX002 (ip), vehicle: Klucel (hydroxypropylcellulose) (HPC)): 74 % of control and 82 % of control | T/C (dose: 2.5 mg/kg/injection, schedule: Q07DX002 (ip), vehicle: Klucel (hydroxypropylcellulose) (HPC)): 58 % of control and 70 % of control | T/C (dose: 5.0 mg/kg/injection, schedule: Q07DX002 (ip), vehicle: Klucel (hydroxypropylcellulose) (HPC)): 46 % of control and 55 % of control | T/C (dose: 10.0 mg/kg/injection, schedule: Q07DX002 (ip), vehicle: Klucel (hydroxypropylcellulose) (HPC)): 52 % of control

C(C#CCN1CCOCC1)#CCN1CCOCC1
T/C (dose: 25.0 mg/kg/injection, schedule: Q07DX002 (ip), vehicle: Klucel (hydroxypropylcellulose) (HPC)): 80 % of control | T/C [15]: 166 % of control | T/C [14]: 60 % of control | T/C (dose: 50.0 mg/kg/injection, schedule: Q07DX002 (ip), vehicle: saline with Tween-80): 213 % of control | T/C [1]: 65 % of control | T/C [5]: 177 % of control | T/C [2]: 49 % of control | T/C [6]: 296 % of control | T/C [3]: 94 % of control | T/C [7]: 285 % of control | T/C (dose: 800.0 mg/kg/injection, schedule: Q07DX002 (ip), vehicle: Klucel (hydroxypropylcellulose) (HPC)): 60 % of control | T/C [8]: 262 % of control

C[C@@H]1C(=O)C[C@H]2C(C)(C)CCC[C@]2(C)[C@@]1(O)CCc1ccoc1
T/C [14]: 74 % of control | T/C [2]: 84 % of control | T/C [3]: 67 % of control

Reference: PubChem BioAssay AID212 (DTP/NCI, 2004)
